Measurements as given in publication PMC4476725 (PLoS Pathogens, 2015).
Like-named read-outs stand apart in the source and are kept apart here.

Assays:
RSV RNP complex = RSV RNP complex (Human respiratory syncytial virus A, UniProt P28887); assay: biochemical; format: biochemical
QUAD RNP complex = QUAD RNP complex (Human respiratory syncytial virus A, UniProt P28887, A789V/I796V/L795I/M628L); format: biochemical
PIV-1 polymerase = PIV-1 polymerase (Human respirovirus 1, UniProt Q8QT26); assay: biochemical; details: Parainfluenza virus type-1 polymerase
IAV polymerase = IAV polymerase (Influenza A virus, UniProt P03431); assay: IAV polymerase gel-based assay; format: biochemical
HCV polymerase = HCV polymerase (Hepatitis C virus genotype 1b, UniProt Q9WMX2); assay: HCV polymerase inhibition assay; format: biochemical
[1] = biological target: T1, wild-type RSV L-P RNA polymerase complex (Human respiratory syncytial virus A, UniProt P28887); format: biochemical; details: Fig 5A
T1 construct: made in house; host or cells: insect cells

[2] = biological target: RSV polymerase QUAD mutant (Human respiratory syncytial virus A, UniProt P28887, A789V/I796V/L795I/M628L); assay: Single nucleotide incorporation by recombinant RSV L-P polymerase, QUAD mutant; format: biochemical; details: recombinant L-P enzymes
[3] = biological target: human mitochondrial RNA polymerase (Homo sapiens, UniProt O00411); assay: DdRp assay with human mitochondrial RNA polymerase, single turnover; format: biochemical; details: 100 μM of each NTP

Nc1ccn([C@@H]2O[C@](CCl)(COP(=O)(O)OP(=O)(O)OP(=O)(O)O)[C@@H](O)[C@H]2F)c(=O)n1 [ALS-8112-TP, 2'-Fluoro-4'-Chloromethyl-Cytidine Triphosphate] was tested, and the “inhibition of RSV RNP complex (in words)” value (RSV RNP complex; Fig 5B) was “efficiently inhibit RSV”, the “mode of inhibition of RSV RNP complex” value (RSV RNP complex; NTP competition, 1 or 100 μM NTP, 30 μM inhibitor) was “competitive inhibitor of cytidine monophosphate (CMP) incorporation” and the “viral RNA transcription activity inhibited (in words)” value (RSV RNP complex; crude RNP complex from virus-infected cells) was “inhibited”. For the same compound, the “inhibition of RdRp activity of the QUAD RNP complex” value (QUAD RNP complex) was 57%, the “loss in inhibition potency compared to the wild-type protein” value (QUAD RNP complex) was 145 fold and the IC50 (PIV-1 polymerase) was 2.3 µM. For the same compound, the IC50 (IAV polymerase; Influenza virus polymerase, based on a single 100 μM concentration) was greater than 100 µM, the inhibition at 100 µM (IAV polymerase; at 100 μM) was 20.5% and the “inhibition of HCV polymerase (in words)” value (HCV polymerase; Fig 5B) was “not HCV polymerase”. For the same compound, the IC50 (HCV polymerase; Hepatitis C virus polymerase, read-out: IC50) was greater than 33 µM, the IC50 (HCV polymerase; second symbol of RSV / HCV, read-out: HCV polymerase inhibition class (IC50)) was greater than 10 µM and the “substrate and chain termination profile with recombinant RSV polymerase (in words)” value [1] was “both substrates and chain terminators”. The “increase in discrimination, QUAD vs WT (resistance level)” value [2] was 4.6 fold and the “recognition as substrate by human mitochondrial RNA polymerase (in words)” value [3] was “not recognized as a substrate”.
